Counter-ions that a name gives are not always drawn.
Assays:
β-amyloid protein = experiment: action of inhibiting the production and secretion of β-amyloid protein
[1] = stability on storage for a long time under usual conditions; assay type: physicochemical

In the case of `CN(C)CC[C@@H]1CCc2cc(OCc3ccc(-c4ccccc4)cc3)ccc2C1` [Compound (V′), (R)-(+)-6-(4-biphenylyl)methoxy-2-[2-(N,N-dimethylamino)ethyl]tetralin hydrochloride monohydrate], the “action of inhibiting the production and secretion of β-amyloid protein” value (β-amyloid protein) is reported as “excellent”, the “transfer to the brain” value (transfer to the brain) is reported as “excellent in transfer to the brain” and the “stability (denaturation after storage)” value [1] is reported as “very excellent in stability”. For the same compound, the toxicity (toxicity) was “low toxic”.

— patent publication US6784314B2, “Process for producing amine derivatives” (Takeda Chemical Industries, Ltd., priority 2000, dated 2004)
